Values joined by “and” are separate entries in the source; they are usually repeats but may differ in a detail not shown here. Identical values can stand only once. Inconclusive results and toxic doses are left out.
Tested on: L1210 leukemia ip in BDF1 mice, survival T/C
Test: NCI In Vivo Anticancer Drug Screen. Data for tumor model L1210 Leukemia (intraperitoneal) in B6D2F1 (BDF1) mice
Conditions: endpoint: mean survival time, higher = longer survival
How it was run: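 Each compound was tested against a transplantable tumor grown in mice. The endpoint was survival, with treated animals benchmarked against vehicle controls as a simple ratio.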

[1] = dose: 25.0 mg/kg/injection, schedule: Q01DX009 (ip), vehicle: saline
[2] = dose: 25.0 mg/kg/injection, schedule: Q04DX003 (ip), vehicle: saline
[3] = dose: 50.0 mg/kg/injection, schedule: Q01DX009 (ip), vehicle: saline
[4] = dose: 50.0 mg/kg/injection, schedule: Q04DX003 (ip), vehicle: saline
[5] = dose: 100.0 mg/kg/injection, schedule: Q01DX009 (ip), vehicle: saline
[6] = dose: 100.0 mg/kg/injection, schedule: Q04DX003 (ip), vehicle: saline
[7] = dose: 200.0 mg/kg/injection, schedule: Q01DX009 (ip), vehicle: saline
[8] = dose: 400.0 mg/kg/injection, schedule: Q01DX009 (ip), vehicle: saline
[9] = dose: 100.0 mg/kg/injection, schedule: Q01DX001 (ip), vehicle: Klucel (hydroxypropylcellulose) (HPC)
[10] = dose: 200.0 mg/kg/injection, schedule: Q01DX001 (ip), vehicle: Klucel (hydroxypropylcellulose) (HPC)
[11] = dose: 400.0 mg/kg/injection, schedule: Q01DX001 (ip), vehicle: Klucel (hydroxypropylcellulose) (HPC)
[12] = dose: 100.0 mg/kg/injection, schedule: Q01DX009 (ip), vehicle: Klucel (hydroxypropylcellulose) (HPC)
[13] = dose: 200.0 mg/kg/injection, schedule: Q01DX009 (ip), vehicle: Klucel (hydroxypropylcellulose) (HPC)
[14] = dose: 100.0 mg/kg/injection, schedule: Q04DX003 (ip), vehicle: saline with Tween-80
[15] = dose: 100.0 mg/kg/injection, schedule: Q04DX002 (ip), vehicle: Klucel (hydroxypropylcellulose) (HPC)
[16] = dose: 100.0 mg/kg/injection, schedule: Q01DX001 (ip), vehicle: saline

C[CH2][Sn](/[CH]=C\CO)([CH2]C)[CH2]C
T/C (dose: 0.78 mg/kg/injection, schedule: Q01DX009 (ip), vehicle: saline): 86 % of control
T/C (dose: 1.56 mg/kg/injection, schedule: Q01DX009 (ip), vehicle: saline): 104 % of control
T/C (dose: 3.12 mg/kg/injection, schedule: Q01DX009 (ip), vehicle: saline): 90 % of control

N#CSCCN1C(=O)C2C3CCC(O3)C2C1=O (stereo not drawn)
T/C (dose: 6.25 mg/kg/injection, schedule: Q04DX002 (ip), vehicle: saline with Tween-80): 94 % of control
T/C (dose: 12.5 mg/kg/injection, schedule: Q04DX002 (ip), vehicle: saline with Tween-80): 97 % of control

CS(=O)(=O)OCCCCCOS(C)(=O)=O
T/C (dose: 5.0 mg/kg/injection, schedule: Q01DX001 (ip), vehicle: carboxymethylcellulose (CMC)): 97 % of control
T/C (dose: 6.0 mg/kg/injection, schedule: Q01DX015 (ip), vehicle: saline): 101 % of control
T/C (dose: 10.0 mg/kg/injection, schedule: Q01DX001 (ip), vehicle: carboxymethylcellulose (CMC)): 100 % of control
T/C (dose: 12.0 mg/kg/injection, schedule: Q01DX015 (ip), vehicle: saline): 110 % of control
T/C (dose: 20.0 mg/kg/injection, schedule: Q01DX001 (ip), vehicle: carboxymethylcellulose (CMC)): 100 % of control
T/C (dose: 40.0 mg/kg/injection, schedule: Q01DX001 (ip), vehicle: carboxymethylcellulose (CMC)): 101 % of control
T/C (dose: 50.0 mg/kg/injection, schedule: Q01DX015 (ip), vehicle: saline): 101 % of control

CCC(=O)OC1(c2ccccc2)CCN(C)C1C (stereo not drawn)
T/C (dose: 6.25 mg/kg/injection, schedule: Q01DX009 (ip), vehicle: saline): 101 % of control
T/C (dose: 12.5 mg/kg/injection, schedule: Q01DX009 (ip), vehicle: saline): 97 % of control
T/C [1]: 103 % of control
T/C [2]: 103 % of control
T/C [3]: 111 % of control
T/C [4]: 105 % of control
T/C [5]: 103 % of control
T/C [6]: 100 % of control

COc1cc(Cl)ccc1NC(=O)Oc1ccc(F)cc1
T/C [5]: 123 % of control
T/C [7]: 101 % of control
T/C [8]: 115 % of control

O=CC(NC(=O)c1ccccc1)C(O)C(O)C(O)CO (stereo not drawn)
T/C [9]: 98 % of control
T/C [10]: 105 % of control
T/C [11]: 105 % of control

COc1ccc(/C=N/NC(=S)Nc2ccccc2)cc1
T/C [12]: 103 % of control
T/C [13]: 95 % of control
T/C (dose: 400.0 mg/kg/injection, schedule: Q01DX009 (ip), vehicle: Klucel (hydroxypropylcellulose) (HPC)): 108 % of control

CC1(C)OCC(CO)([N+](=O)[O-])CO1
T/C (dose: 12.5 mg/kg/injection, schedule: Q04DX003 (ip), vehicle: saline with Tween-80): 92 % of control
T/C (dose: 25.0 mg/kg/injection, schedule: Q01DX009 (ip), vehicle: saline with Tween-80): 108 % of control
T/C (dose: 25.0 mg/kg/injection, schedule: Q04DX003 (ip), vehicle: saline with Tween-80): 93 % of control
T/C (dose: 50.0 mg/kg/injection, schedule: Q01DX009 (ip), vehicle: saline with Tween-80): 108 % of control
T/C (dose: 50.0 mg/kg/injection, schedule: Q04DX003 (ip), vehicle: saline with Tween-80): 95 % of control
T/C (dose: 100.0 mg/kg/injection, schedule: Q01DX009 (ip), vehicle: saline with Tween-80): 108 % of control
T/C [14]: 100 % of control
T/C (dose: 150.0 mg/kg/injection, schedule: Q04DX003 (ip), vehicle: saline with Tween-80): 94 % of control

CC(=O)C(N=Nc1ccccc1)C(C)=O
T/C (dose: 25.0 mg/kg/injection, schedule: Q01DX009 (ip), vehicle: Klucel (hydroxypropylcellulose) (HPC)): 94 % of control
T/C (dose: 50.0 mg/kg/injection, schedule: Q01DX009 (ip), vehicle: Klucel (hydroxypropylcellulose) (HPC)): 92 % of control
T/C [12]: 97 % of control and 102 % of control

CC1CN=C(N)NC1=O (stereo not drawn)
T/C (dose: 100.0 mg/kg/injection, schedule: Q01DX Z (ip), vehicle: saline): 104 % of control
T/C (dose: 200.0 mg/kg/injection, schedule: Q01DX Z (ip), vehicle: saline): 119 % of control

CCOC(=O)CCc1cc(C)[nH]c1C(=O)OCC
T/C [9]: 93 % of control
T/C (dose: 100.0 mg/kg/injection, schedule: Q04DX003 (ip), vehicle: Klucel (hydroxypropylcellulose) (HPC)): 101 % of control
T/C [10]: 93 % of control
T/C (dose: 200.0 mg/kg/injection, schedule: Q04DX003 (ip), vehicle: Klucel (hydroxypropylcellulose) (HPC)): 96 % of control
T/C [11]: 101 % of control
T/C (dose: 400.0 mg/kg/injection, schedule: Q04DX003 (ip), vehicle: Klucel (hydroxypropylcellulose) (HPC)): 98 % of control

COc1ccc(-c2csc(-c3ccccc3)n2)cc1N=Cc1ccc(N(CCCl)CCCl)c(OC)c1
T/C (dose: 0.96 mg/kg/injection, schedule: Q01DX009 (ip), vehicle: acetone): 106 % of control
T/C (dose: 1.4 mg/kg/injection, schedule: Q01DX009 (ip), vehicle: acetone): 103 % of control
T/C (dose: 5.0 mg/kg/injection, schedule: Q01DX015 (ip), vehicle: carboxymethylcellulose (CMC)): 120 % of control
T/C (dose: 8.0 mg/kg/injection, schedule: Q01DX015 (ip), vehicle: carboxymethylcellulose (CMC)): 113 % of control
T/C (dose: 10.0 mg/kg/injection, schedule: Q01DX009 (ip), vehicle: acetone): 154 % of control
T/C (dose: 20.0 mg/kg/injection, schedule: Q01DX009 (ip), vehicle: acetone): 166 % of control
T/C (dose: 20.0 mg/kg/injection, schedule: Q01DX015 (ip), vehicle: carboxymethylcellulose (CMC)): 153 % of control
T/C (dose: 40.0 mg/kg/injection, schedule: Q01DX009 (ip), vehicle: acetone): 102 % of control
T/C (dose: 66.0 mg/kg/injection, schedule: Q01DX015 (ip), vehicle: carboxymethylcellulose (CMC)): 101 % of control
T/C (dose: 100.0 mg/kg/injection, schedule: Q01DX015 (ip), vehicle: carboxymethylcellulose (CMC)): 104 % of control

OC1CCNc2ccccc21 (stereo not drawn)
T/C [5]: 104 % of control
T/C [7]: 105 % of control
T/C [8]: 112 % of control

CCCCN1COC(OCC)C(C)(C)C1 (stereo not drawn)
T/C (dose: 75.0 mg/kg/injection, schedule: Q01DX009 (ip), vehicle: saline): 116 % of control
T/C (dose: 150.0 mg/kg/injection, schedule: Q01DX009 (ip), vehicle: saline): 113 % of control
T/C (dose: 300.0 mg/kg/injection, schedule: Q01DX009 (ip), vehicle: saline): 112 % of control

CCOC(=O)c1ccc(NC(=O)Nc2cccc(F)c2)cc1
T/C [12]: 101 % of control
T/C [13]: 100 % of control

CCOC(=O)C1C2CCCC(=O)C21 (stereo not drawn)
T/C [15]: 96 % of control
T/C (dose: 200.0 mg/kg/injection, schedule: Q04DX002 (ip), vehicle: Klucel (hydroxypropylcellulose) (HPC)): 104 % of control
T/C (dose: 400.0 mg/kg/injection, schedule: Q04DX002 (ip), vehicle: Klucel (hydroxypropylcellulose) (HPC)): 100 % of control

CC(CCO)CCC1OC1(C)C (stereo not drawn)
T/C [16]: 103 % of control
T/C (dose: 200.0 mg/kg/injection, schedule: Q01DX001 (ip), vehicle: saline): 105 % of control
T/C (dose: 400.0 mg/kg/injection, schedule: Q01DX001 (ip), vehicle: saline): 103 % of control

C/C(=N\[N+](C)(C)C)c1cccc(C)n1
T/C [1]: 97 % of control
T/C [2]: 107 % of control
T/C [3]: 105 % of control
T/C [4]: 102 % of control
T/C [16]: 103 % of control
T/C [5]: 100 % of control
T/C [6]: 100 % of control

O=[N+]([O-])c1cccc(S(=O)(=O)Oc2ccc(-c3ccccc3)cc2)c1
T/C [14]: 96 % of control
T/C (dose: 200.0 mg/kg/injection, schedule: Q04DX003 (ip), vehicle: saline with Tween-80): 91 % of control
T/C (dose: 400.0 mg/kg/injection, schedule: Q04DX003 (ip), vehicle: saline with Tween-80): 90 % of control

CCCCCCCCN(CCCCCCCC)CC(O)c1ccc2cc(Br)c3ccccc3c2c1 (stereo not drawn)
T/C (dose: 100.0 mg/kg/injection, schedule: Q04DX003 (ip), vehicle: acetone): 113 % of control
T/C (dose: 200.0 mg/kg/injection, schedule: Q04DX003 (ip), vehicle: acetone): 120 % of control
T/C (dose: 400.0 mg/kg/injection, schedule: Q04DX003 (ip), vehicle: acetone): 103 % of control

Cc1cc(C)c2c(c1)CC2N (stereo not drawn)
T/C (dose: 25.0 mg/kg/injection, schedule: Q04DX002 (ip), vehicle: Klucel (hydroxypropylcellulose) (HPC)): 95 % of control
T/C (dose: 50.0 mg/kg/injection, schedule: Q04DX002 (ip), vehicle: Klucel (hydroxypropylcellulose) (HPC)): 95 % of control
T/C [15]: 95 % of control and 103 % of control
